What was measured:
[1] = biological target: Sodium-dependent serotonin transporter (Homo sapiens, UniProt P31645)
[2] = biological target: 5-hydroxytryptamine receptor 7 (Homo sapiens, UniProt P34969)
[3] = biological target: T1, 5-hydroxytryptamine receptor 2C (Homo sapiens, UniProt P28335)
T1 sequence (P28335 whole entry): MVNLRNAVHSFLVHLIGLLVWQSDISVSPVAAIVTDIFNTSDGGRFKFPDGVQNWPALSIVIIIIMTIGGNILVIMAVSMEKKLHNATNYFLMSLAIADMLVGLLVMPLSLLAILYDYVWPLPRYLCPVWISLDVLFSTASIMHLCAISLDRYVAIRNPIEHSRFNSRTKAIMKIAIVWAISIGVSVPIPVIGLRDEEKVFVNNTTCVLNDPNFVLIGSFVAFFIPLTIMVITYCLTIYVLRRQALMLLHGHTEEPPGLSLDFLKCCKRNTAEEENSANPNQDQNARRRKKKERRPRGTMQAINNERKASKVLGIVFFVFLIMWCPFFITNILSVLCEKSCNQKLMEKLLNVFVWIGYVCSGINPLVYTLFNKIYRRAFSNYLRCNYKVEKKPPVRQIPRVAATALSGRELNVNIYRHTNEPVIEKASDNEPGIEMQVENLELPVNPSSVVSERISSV

[4] = biological target: 5-hydroxytryptamine receptor 2A (Homo sapiens, UniProt P28223)
[5] = biological target: T1, 5-hydroxytryptamine receptor 2C; remark: listed apart in the source
D(4) dopamine receptor = biological target: T2, D(4) dopamine receptor (Rattus norvegicus, UniProt P30729)
T2 sequence (P30729 whole entry): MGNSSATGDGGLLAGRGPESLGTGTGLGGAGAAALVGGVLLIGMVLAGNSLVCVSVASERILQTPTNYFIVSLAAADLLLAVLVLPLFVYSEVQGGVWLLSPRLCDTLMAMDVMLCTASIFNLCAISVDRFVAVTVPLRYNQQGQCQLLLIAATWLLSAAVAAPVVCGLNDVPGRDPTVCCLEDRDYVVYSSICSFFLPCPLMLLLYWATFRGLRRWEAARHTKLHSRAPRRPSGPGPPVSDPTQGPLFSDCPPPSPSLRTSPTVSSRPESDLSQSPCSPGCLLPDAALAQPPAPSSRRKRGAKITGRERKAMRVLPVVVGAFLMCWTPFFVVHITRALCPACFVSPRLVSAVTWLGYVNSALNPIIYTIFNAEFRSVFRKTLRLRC

[6] = biological target: T3, 5-hydroxytryptamine receptor 1A (Homo sapiens, UniProt P08908)
T3 sequence (P08908 whole entry): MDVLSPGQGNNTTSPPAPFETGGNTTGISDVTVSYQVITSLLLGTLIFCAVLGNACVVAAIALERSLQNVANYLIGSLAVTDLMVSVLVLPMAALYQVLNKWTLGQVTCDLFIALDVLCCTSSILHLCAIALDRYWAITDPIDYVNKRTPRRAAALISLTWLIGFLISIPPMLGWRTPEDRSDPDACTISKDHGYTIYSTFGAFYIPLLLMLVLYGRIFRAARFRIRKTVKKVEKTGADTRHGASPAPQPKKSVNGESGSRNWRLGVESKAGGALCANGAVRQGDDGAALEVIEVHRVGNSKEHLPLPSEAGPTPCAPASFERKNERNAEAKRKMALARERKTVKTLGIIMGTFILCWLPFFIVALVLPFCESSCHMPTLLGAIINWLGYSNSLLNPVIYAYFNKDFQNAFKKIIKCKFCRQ

D(2) dopamine receptor = D(2) dopamine receptor (Homo sapiens, UniProt P14416)
[7] = biological target: Sodium-dependent noradrenaline transporter (Homo sapiens, UniProt P23975)
[8] = biological target: Sodium-dependent dopamine transporter (Homo sapiens, UniProt Q01959)
Histamine H1 receptor = Histamine H1 receptor (Homo sapiens, UniProt P35367)
Sequence of Histamine H1 receptor (P35367 whole entry): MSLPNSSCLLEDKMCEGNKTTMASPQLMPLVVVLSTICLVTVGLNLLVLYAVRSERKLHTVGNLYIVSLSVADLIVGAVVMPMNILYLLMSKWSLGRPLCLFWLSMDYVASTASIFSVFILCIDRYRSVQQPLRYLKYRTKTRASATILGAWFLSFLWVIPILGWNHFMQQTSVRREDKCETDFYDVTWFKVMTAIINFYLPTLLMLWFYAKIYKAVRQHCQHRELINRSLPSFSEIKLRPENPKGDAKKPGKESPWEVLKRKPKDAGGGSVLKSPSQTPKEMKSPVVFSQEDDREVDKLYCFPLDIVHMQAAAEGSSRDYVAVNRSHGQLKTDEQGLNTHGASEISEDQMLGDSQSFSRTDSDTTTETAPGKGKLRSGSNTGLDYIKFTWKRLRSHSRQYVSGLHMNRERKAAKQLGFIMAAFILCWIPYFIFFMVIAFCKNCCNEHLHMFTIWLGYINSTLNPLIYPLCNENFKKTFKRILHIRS

Sequence of Sodium-dependent serotonin transporter (P31645 whole entry): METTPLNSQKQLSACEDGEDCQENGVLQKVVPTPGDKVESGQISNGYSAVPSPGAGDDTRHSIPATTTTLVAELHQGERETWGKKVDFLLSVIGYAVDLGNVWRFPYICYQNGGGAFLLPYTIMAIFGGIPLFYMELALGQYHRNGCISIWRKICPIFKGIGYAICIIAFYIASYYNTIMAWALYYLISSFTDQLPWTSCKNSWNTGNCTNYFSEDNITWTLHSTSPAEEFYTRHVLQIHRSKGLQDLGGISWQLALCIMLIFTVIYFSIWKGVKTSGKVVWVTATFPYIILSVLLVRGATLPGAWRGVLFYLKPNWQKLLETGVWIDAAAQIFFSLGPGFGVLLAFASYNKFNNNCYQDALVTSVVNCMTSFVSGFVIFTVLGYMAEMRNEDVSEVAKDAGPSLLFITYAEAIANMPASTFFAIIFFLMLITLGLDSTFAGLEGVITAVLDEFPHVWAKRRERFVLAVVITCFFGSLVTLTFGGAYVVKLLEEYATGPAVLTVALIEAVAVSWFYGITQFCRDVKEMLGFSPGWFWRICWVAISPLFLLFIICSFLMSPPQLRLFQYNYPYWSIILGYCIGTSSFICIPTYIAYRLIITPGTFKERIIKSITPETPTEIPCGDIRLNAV
Sequence of 5-hydroxytryptamine receptor 7 (P34969 whole entry): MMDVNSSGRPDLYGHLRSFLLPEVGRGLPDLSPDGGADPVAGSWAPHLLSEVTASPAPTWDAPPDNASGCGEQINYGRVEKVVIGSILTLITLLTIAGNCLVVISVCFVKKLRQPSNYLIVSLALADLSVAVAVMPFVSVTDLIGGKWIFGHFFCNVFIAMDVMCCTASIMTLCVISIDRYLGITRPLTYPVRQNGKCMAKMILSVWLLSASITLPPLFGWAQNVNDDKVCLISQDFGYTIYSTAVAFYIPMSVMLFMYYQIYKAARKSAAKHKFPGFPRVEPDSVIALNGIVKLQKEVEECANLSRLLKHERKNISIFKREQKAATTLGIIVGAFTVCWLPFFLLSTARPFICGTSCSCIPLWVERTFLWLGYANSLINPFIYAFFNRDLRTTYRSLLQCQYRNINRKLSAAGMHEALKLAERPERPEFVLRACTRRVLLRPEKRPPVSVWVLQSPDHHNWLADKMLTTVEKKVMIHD
Sequence of 5-hydroxytryptamine receptor 2A (P28223 whole entry): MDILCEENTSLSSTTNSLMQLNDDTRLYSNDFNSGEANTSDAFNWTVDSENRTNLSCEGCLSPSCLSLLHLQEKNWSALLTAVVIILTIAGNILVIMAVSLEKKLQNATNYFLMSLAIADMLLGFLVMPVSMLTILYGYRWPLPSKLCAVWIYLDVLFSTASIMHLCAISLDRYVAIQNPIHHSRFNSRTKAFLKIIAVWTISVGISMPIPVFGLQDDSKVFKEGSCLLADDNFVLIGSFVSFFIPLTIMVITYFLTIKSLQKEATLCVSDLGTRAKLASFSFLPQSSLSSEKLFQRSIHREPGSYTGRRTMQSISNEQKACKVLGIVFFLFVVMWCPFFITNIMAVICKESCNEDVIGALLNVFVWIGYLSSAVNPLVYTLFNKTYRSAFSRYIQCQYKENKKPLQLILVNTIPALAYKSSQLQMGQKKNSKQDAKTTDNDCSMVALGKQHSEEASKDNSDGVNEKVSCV
Sequence of D(2) dopamine receptor (P14416 whole entry): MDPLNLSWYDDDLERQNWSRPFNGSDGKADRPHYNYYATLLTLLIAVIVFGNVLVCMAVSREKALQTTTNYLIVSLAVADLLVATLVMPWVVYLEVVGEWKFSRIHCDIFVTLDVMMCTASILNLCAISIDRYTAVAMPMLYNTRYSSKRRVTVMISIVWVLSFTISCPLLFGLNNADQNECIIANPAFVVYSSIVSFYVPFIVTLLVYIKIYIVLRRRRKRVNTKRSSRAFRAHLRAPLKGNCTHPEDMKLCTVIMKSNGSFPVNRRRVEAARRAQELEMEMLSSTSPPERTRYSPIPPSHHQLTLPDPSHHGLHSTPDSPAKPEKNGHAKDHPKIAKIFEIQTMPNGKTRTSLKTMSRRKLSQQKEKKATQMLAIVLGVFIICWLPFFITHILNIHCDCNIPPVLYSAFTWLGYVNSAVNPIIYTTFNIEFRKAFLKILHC
Sequence of Sodium-dependent noradrenaline transporter (P23975 whole entry): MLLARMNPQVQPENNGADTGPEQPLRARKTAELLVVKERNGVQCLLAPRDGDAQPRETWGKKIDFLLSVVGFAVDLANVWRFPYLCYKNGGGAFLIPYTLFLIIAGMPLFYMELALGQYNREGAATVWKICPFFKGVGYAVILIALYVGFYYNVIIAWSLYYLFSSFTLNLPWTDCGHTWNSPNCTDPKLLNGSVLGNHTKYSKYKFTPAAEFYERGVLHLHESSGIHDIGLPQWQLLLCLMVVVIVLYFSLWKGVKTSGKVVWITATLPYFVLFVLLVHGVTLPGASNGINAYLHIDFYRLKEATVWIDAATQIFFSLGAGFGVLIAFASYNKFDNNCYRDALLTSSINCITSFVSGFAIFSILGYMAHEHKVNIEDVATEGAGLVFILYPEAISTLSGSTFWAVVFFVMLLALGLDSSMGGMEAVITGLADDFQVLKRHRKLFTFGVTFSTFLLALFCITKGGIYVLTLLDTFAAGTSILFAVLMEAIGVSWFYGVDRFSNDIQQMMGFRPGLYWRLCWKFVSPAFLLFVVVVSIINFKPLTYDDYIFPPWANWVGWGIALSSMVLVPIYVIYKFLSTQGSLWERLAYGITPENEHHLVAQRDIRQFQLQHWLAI
Sequence of Sodium-dependent dopamine transporter (Q01959 whole entry): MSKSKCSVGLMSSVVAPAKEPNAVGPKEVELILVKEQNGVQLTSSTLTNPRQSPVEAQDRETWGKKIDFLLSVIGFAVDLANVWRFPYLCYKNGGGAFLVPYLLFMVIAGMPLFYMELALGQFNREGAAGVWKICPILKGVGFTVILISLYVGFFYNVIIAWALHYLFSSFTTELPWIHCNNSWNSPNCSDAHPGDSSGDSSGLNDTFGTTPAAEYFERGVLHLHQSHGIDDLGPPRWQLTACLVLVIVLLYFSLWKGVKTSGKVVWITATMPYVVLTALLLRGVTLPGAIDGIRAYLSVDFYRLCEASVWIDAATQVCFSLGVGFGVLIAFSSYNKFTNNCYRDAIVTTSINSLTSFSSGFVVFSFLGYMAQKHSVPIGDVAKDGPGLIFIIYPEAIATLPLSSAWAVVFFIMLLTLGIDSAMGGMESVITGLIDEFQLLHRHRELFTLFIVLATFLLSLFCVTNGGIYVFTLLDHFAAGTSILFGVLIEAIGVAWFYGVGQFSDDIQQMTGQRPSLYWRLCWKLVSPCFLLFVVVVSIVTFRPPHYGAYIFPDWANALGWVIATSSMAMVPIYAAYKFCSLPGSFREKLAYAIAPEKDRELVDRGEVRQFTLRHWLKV

Ki [5]	Ki (D(4) dopamine receptor)	Compound	Ki ([1]; read-out: Ki)	Ki ([2]; read-out: Ki)	Ki [3]	Ki [4]	Ki (D(4) dopamine receptor; read-out: Ki)	Ki [6]	Ki (D(2) dopamine receptor)	Ki [1]	Ki [2]	Ki [7]	Ki [8]	Ki (Histamine H1 receptor)
		Clc1ccc(N2CCCN(CCCCc3nc4ccccc4s3)CC2)cc1	65 nM	413 nM										
		Clc1ccc(N2CCCN(CCCc3nc4ccccc4s3)CC2)cc1	34 nM	2060 nM	Not Active									
		O=C(CCCCN1CCCN(c2ccc(Cl)cc2)CC1)c1nc2ccccc2s1	65 nM	2810 nM										
		O=C(CCCN1CCCN(c2ccc(Cl)cc2)CC1)c1nc2ccccc2s1	5.3 nM	356 nM										
4650 nM		Clc1ccc(N2CCN(CCCc3nc4ccccc4s3)CC2)cc1	1180 nM	790 nM		36 nM	31 nM	312 nM	2320 nM					
6210 nM		Clc1ccc(N2CCN(CCCCc3nc4ccccc4s3)CC2)cc1	166 nM	329 nM		132 nM	4 nM	90.5 nM	219 nM					
		OC1(c2ccc(Cl)cc2)CCN(CCCCc2nc3ccccc3s2)CC1	922 nM	983 nM	Not Active	4260 nM	140 nM	771 nM	201 nM					
		O=C(CCCN1CCC(c2ccccc2)CC1)c1nc2ccccc2s1			Not Active		44.4 nM	85 nM	530 nM					
		O=C(CCCN1CCN(c2ncccn2)CC1)c1nc2ccccc2s1			Not Active		51.5 nM	63 nM		Not Active				
		O=C(CCCCN1CCC(n2c(=O)[nH]c3cc(Cl)ccc32)CC1)c1nc2ccccc2s1	565 nM		Not Active	1560 nM	1710 nM	252 nM	217 nM					
		c1ccc2c(c1)CN(CCCCc1nc3ccccc3s1)C2	186 nM	211 nM	Not Active	> 10000 nM	141 nM	111 nM	990 nM					
		O=C(CCCN1CCN(c2ccc(Cl)cc2)CC1)c1nc2ccccc2s1	491 nM		Not Active	2000 nM	342 nM	> 10000 nM	8360 nM		Not Active			
	Not Active	O=C(CCCN1CCN(c2ccccc2)CC1)c1nc2ccccc2s1	> 10000 nM		Not Active	> 10000 nM		350 nM	> 10000 nM		Not Active			
		O=C(CCCCN1CCC2(CC1)C(=O)NCN2c1ccccc1)c1nc2ccccc2s1	284 nM	518 nM	Not Active	3720 nM	162 nM	103 nM						
		O=C(CCCCN1Cc2ccccc2C1)c1nc2ccccc2s1			Not Active	> 10000 nM	512 nM							
		O=C(CCCCN1CCN(c2ccc(Cl)cc2)CC1)c1nc2ccccc2s1	81 nM	2920 nM	Not Active	523 nM	100 nM	28.3 nM	4790 nM			> 10000 nM	4740 nM	46 nM
		O=C(CCCCN1CCN(c2ncccn2)CC1)c1nc2ccccc2s1			Not Active			3.6 nM		Not Active				
		O=C(CCCCN1CCN(c2ccccc2)CC1)c1nc2ccccc2s1					105 nM	3.6 nM						
3740 nM		O=C(CCCCN1CCC(c2ccccc2)CC1)c1nc2ccccc2s1	64 nM	107 nM		3.4 nM	180 nM	7.3 nM	642 nM			49 nM		52 nM
		N#Cc1ccc2[nH]cc(CCCCN3CCN(c4ccc5oc(C(N)=O)cc5c4)CC3)c2c1 [VILAZODONE]							666 nM					

Compound	Ki [5]	Ki (D(4) dopamine receptor)	Ki ([1]; read-out: Ki)	Ki ([2]; read-out: Ki)	Ki [3]	Ki [4]	Ki (D(4) dopamine receptor; read-out: Ki)	Ki [6]	Ki (D(2) dopamine receptor)	Ki [1]	Ki [2]	Ki [7]	Ki [8]	Ki (Histamine H1 receptor)
c1cnc(N2CCN(CCCCc3nc4ccccc4s3)CC2)nc1	> 10000 nM			229 nM		224 nM	0.8 nM			Not Active				
c1ccc2c(c1)CCN(CCCCc1nc3ccccc3s1)C2	6270 nM		1320 nM	35.6 nM		3810 nM	65.5 nM	5.1 nM	30.8 nM					

From ChEMBL document CHEMBL2034919 (Eur J Med Chem, 2012)
